Experimental data taken from ChEMBL document CHEMBL3991601, “The target landscape of clinical kinase drugs” (Science, 2017).
Activity calls are given as the source filed them.

Key:
[1] = molecular target: T1, Electron transfer flavoprotein subunit beta (Homo sapiens, UniProt P38117)
T1 sequence (P38117 whole entry): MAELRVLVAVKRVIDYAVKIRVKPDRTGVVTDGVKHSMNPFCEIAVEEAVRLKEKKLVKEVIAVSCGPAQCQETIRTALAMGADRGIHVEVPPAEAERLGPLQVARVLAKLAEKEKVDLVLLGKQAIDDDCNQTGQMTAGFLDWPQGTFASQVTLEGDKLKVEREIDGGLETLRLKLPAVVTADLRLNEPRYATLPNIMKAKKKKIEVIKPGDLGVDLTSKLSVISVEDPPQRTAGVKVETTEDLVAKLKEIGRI

[2] = molecular target: Serine/threonine-protein kinase 24 (Homo sapiens, UniProt Q9Y6E0)
[3] = molecular target: T2, Long-chain-fatty-acid--CoA ligase 5 (Homo sapiens, UniProt Q9ULC5)
T2 sequence (Q9ULC5 whole entry): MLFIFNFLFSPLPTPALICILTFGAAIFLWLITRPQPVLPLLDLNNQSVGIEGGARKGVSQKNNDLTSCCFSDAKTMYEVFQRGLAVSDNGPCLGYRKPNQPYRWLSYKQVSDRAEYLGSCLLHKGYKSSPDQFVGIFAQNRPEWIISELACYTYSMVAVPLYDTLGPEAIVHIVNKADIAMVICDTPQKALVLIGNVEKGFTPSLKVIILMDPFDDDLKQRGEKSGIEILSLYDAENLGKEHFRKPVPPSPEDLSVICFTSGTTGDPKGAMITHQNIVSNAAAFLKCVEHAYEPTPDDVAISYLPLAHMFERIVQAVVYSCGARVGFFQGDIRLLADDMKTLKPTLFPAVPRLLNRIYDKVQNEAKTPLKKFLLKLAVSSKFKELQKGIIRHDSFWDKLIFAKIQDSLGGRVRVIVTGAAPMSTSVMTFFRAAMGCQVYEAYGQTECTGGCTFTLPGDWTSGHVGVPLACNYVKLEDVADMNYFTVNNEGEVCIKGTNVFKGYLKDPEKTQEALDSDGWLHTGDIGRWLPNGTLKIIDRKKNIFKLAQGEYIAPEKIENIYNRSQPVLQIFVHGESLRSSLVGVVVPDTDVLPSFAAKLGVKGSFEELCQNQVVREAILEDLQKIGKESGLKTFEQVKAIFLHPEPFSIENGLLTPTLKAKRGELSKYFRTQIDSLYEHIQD

[4] = molecular target: Dual specificity protein kinase CLK4 (Homo sapiens, UniProt Q9HAZ1)
[5] = molecular target: T3, Dual specificity mitogen-activated protein kinase kinase 4 (Homo sapiens, UniProt P45985)
T3 sequence (P45985 whole entry): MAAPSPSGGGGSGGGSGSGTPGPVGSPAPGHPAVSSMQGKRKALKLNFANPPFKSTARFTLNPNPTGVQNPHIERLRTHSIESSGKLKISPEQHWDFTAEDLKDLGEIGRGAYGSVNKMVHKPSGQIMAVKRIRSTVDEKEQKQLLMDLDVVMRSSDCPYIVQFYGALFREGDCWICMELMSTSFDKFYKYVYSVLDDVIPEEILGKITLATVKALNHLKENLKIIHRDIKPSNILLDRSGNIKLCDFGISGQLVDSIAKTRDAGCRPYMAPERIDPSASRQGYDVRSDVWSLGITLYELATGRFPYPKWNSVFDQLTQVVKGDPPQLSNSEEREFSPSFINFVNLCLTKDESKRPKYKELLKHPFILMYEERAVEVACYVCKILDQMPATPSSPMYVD

[6] = molecular target: Serine/threonine-protein kinase N3 (Homo sapiens, UniProt Q6P5Z2)
[7] = molecular target: T4, Isoleucine--tRNA ligase, mitochondrial (Homo sapiens, UniProt Q9NSE4)
T4 sequence (Q9NSE4 whole entry): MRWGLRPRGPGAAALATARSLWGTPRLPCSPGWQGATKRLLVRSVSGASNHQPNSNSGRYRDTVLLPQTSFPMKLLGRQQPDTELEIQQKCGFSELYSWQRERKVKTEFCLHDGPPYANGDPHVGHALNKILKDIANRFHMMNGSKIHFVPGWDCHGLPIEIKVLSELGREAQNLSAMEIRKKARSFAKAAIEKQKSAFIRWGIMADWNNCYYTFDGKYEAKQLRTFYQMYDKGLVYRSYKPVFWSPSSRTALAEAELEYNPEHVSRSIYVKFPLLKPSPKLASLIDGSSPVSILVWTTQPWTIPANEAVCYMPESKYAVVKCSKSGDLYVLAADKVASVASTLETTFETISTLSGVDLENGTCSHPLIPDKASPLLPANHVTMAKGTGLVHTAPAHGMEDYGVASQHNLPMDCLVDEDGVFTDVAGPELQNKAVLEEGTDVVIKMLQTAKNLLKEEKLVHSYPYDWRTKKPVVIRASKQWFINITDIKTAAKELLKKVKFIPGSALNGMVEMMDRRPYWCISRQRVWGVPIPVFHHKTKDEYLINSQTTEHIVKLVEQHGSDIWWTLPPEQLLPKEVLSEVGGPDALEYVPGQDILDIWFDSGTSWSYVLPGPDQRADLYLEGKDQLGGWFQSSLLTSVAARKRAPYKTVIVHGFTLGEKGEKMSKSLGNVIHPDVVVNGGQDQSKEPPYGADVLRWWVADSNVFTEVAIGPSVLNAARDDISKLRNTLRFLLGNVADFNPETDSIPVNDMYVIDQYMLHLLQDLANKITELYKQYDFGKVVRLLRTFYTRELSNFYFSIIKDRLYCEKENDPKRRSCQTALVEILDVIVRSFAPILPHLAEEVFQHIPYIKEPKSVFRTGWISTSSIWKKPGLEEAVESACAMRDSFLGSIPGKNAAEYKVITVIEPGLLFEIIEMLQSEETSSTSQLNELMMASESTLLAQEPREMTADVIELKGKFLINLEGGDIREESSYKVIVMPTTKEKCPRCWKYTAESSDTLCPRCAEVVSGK

[8] = molecular target: Serine/threonine-protein kinase ATR (Homo sapiens, UniProt Q13535)
[9] = molecular target: Choline-phosphate cytidylyltransferase A (Homo sapiens, UniProt P49585)
[10] = molecular target: Serine/threonine-protein kinase 38-like (Homo sapiens, UniProt Q9Y2H1)

Measured: Kd
Also: in the data inactive means no Kd found up to 30 µM.

Chain of Serine/threonine-protein kinase 24 (Q9Y6E0 whole entry): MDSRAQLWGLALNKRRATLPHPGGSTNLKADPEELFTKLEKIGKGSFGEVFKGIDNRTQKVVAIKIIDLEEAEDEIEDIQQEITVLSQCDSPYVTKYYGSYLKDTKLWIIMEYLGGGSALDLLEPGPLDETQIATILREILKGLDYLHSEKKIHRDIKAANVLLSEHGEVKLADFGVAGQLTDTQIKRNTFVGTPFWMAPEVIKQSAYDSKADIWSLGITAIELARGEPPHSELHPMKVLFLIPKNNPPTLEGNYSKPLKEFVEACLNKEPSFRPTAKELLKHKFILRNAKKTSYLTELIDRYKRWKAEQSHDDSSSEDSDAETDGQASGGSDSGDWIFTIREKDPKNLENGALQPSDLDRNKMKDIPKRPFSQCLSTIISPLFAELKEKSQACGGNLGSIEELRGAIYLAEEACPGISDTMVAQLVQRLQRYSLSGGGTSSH
Chain of Choline-phosphate cytidylyltransferase A (P49585 whole entry): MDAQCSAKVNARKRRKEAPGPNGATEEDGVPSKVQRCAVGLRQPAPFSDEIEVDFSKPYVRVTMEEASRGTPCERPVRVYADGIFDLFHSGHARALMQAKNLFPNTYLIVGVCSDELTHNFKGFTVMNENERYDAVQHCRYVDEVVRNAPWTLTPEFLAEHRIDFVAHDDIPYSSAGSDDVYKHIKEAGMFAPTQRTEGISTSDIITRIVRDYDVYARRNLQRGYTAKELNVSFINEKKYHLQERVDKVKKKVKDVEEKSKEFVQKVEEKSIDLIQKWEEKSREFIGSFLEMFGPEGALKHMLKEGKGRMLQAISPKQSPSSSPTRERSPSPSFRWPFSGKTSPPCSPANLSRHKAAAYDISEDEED
Chain of Serine/threonine-protein kinase ATR (Q13535 whole entry): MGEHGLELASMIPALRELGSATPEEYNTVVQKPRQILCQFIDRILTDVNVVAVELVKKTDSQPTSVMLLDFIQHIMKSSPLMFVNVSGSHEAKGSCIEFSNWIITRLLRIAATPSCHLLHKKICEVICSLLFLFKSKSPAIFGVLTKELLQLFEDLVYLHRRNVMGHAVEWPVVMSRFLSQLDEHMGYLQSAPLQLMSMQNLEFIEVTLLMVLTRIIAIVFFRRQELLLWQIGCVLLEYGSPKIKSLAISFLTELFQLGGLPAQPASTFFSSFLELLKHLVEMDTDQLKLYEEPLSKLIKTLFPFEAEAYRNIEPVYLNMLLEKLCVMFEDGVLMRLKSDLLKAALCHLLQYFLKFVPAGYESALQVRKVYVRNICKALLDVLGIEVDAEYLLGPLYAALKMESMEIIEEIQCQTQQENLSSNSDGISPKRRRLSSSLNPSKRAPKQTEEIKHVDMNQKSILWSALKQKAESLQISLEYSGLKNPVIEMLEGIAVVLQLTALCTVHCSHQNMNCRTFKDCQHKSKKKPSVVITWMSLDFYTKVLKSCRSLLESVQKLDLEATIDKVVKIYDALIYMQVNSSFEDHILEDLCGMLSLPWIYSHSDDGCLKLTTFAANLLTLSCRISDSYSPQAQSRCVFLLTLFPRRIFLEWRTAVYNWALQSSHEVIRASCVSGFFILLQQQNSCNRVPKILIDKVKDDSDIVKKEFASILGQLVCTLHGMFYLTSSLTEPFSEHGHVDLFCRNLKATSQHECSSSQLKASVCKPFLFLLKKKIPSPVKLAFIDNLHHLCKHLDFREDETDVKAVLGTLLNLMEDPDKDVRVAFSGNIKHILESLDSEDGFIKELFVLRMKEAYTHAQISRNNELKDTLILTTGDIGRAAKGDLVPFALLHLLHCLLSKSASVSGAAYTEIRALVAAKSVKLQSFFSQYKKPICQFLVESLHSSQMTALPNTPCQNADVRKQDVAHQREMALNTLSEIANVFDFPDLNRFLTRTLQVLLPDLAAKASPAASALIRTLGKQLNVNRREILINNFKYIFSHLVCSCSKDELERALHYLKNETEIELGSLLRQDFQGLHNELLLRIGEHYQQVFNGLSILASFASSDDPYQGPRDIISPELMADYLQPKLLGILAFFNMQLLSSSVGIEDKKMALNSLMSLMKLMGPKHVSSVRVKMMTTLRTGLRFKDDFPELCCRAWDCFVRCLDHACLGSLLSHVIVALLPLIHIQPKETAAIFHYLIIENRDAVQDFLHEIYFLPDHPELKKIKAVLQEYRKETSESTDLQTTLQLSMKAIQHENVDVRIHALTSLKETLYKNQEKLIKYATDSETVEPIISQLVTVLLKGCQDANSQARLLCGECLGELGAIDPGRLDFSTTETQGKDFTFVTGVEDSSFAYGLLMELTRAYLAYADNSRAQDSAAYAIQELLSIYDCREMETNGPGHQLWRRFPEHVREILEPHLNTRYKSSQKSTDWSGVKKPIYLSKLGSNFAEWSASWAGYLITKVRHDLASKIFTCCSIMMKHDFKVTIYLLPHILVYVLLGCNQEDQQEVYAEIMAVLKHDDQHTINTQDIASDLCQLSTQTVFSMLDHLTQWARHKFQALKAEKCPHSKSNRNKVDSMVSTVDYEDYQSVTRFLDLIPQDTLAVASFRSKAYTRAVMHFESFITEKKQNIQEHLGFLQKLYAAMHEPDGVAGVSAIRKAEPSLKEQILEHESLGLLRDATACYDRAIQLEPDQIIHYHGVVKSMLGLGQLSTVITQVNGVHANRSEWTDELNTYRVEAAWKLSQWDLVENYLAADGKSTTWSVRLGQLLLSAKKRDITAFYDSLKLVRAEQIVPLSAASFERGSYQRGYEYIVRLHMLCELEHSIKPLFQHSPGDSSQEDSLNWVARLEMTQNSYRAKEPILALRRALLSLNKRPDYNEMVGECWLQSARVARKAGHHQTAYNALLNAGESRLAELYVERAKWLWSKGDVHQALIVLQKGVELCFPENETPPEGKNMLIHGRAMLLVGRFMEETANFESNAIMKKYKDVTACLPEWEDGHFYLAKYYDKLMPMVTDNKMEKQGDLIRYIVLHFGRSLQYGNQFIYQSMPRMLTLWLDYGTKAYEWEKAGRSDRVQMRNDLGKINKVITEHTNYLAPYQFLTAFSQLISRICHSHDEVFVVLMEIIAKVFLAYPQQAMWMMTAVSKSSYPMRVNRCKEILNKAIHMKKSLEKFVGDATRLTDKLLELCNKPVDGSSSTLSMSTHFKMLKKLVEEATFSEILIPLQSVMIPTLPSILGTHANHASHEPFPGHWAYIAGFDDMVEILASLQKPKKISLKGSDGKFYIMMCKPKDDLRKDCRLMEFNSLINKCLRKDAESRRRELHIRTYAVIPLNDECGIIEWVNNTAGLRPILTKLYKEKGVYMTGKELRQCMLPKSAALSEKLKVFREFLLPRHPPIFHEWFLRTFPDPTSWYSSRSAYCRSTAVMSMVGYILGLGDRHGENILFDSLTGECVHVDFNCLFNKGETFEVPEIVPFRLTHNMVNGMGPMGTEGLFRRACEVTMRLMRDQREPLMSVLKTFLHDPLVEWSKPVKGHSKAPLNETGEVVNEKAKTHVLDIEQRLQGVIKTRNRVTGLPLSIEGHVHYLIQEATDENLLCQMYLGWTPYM
Chain of Serine/threonine-protein kinase 38-like (Q9Y2H1 whole entry): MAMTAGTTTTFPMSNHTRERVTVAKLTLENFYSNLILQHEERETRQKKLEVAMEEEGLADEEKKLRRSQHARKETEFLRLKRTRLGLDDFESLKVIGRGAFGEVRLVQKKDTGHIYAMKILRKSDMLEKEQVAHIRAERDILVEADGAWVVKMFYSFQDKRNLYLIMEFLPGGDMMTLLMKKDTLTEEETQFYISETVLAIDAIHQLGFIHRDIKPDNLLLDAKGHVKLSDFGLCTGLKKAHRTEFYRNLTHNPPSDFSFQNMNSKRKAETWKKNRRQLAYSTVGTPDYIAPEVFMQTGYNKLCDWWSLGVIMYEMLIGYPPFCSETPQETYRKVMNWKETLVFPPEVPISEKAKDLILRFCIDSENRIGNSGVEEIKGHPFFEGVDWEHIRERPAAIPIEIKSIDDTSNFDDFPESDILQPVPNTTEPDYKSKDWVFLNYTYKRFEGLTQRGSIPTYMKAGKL
Chain of Serine/threonine-protein kinase N3 (Q6P5Z2 whole entry): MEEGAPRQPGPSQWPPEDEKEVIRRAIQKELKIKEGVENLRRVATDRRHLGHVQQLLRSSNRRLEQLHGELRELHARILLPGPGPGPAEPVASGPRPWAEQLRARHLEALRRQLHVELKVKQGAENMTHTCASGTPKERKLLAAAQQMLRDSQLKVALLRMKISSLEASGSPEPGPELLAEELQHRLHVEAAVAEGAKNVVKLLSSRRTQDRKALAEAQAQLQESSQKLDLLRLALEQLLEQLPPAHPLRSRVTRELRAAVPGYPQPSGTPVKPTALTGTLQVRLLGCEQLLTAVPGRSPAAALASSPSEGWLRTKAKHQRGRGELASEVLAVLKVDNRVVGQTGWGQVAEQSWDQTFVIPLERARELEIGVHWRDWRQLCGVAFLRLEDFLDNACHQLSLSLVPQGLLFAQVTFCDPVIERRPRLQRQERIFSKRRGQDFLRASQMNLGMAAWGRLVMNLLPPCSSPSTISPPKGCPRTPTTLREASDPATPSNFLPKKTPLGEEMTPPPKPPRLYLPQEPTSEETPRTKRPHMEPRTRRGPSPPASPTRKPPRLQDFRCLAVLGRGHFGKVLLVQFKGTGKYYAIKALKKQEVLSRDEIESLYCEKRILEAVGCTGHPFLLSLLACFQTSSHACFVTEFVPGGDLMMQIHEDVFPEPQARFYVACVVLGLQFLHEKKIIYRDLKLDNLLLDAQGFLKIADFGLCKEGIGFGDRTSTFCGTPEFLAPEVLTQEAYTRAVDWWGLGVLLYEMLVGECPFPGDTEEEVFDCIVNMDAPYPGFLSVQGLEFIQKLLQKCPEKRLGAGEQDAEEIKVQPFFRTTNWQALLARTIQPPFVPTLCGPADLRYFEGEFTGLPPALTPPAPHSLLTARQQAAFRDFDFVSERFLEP

C=CC(=O)N1CCC[C@H](n2c(=O)n(-c3ccc(Oc4ccccc4)cc3)c3c(N)ncnc32)C1
inactive: [1] > 30 µM | [2] > 30 µM | [3] > 30 µM | [4] > 30 µM | [5] > 30 µM | [6] > 30 µM

COc1cc(Nc2ncc3c(n2)-c2ccc(Cl)cc2C(c2c(F)cccc2OC)=NC3)ccc1C(=O)O [ALISERTIB]
inactive: [1] > 30 µM | [2] > 30 µM | [3] > 30 µM | [5] > 30 µM | [6] > 30 µM

Cc1nc(NC(=O)N2CCC[C@H]2C(N)=O)sc1-c1ccnc(C(C)(C)C(F)(F)F)c1 [ALPELISIB]
inactive: [7] > 30 µM | [1] > 30 µM | [4] > 30 µM | [8] > 30 µM | [5] > 30 µM

Cc1csc(-c2nnc(Nc3ccc(Oc4ncccc4-c4ccnc(N)n4)cc3)c3ccccc23)c1 [AMG-900]
inactive: [7] > 30 µM | [1] > 30 µM | [2] > 30 µM | [4] > 30 µM | [5] > 30 µM

Cc1cc(C(=O)NOCCO)c(Nc2ccc(I)cc2F)n(C)c1=O [AZD-8330]
inactive: [9] > 30 µM | [5] > 30 µM | [6] > 30 µM

COc1cc2ncnc(Oc3cccc(NC(=O)Nc4cc(C(C)(C)C(F)(F)F)on4)c3)c2cc1OC [CEP-32496]
inactive: [7] > 30 µM | [1] > 30 µM | [2] > 30 µM | [4] > 30 µM | [5] > 30 µM | [6] > 30 µM

Cc1cc(Nc2ncc(Cl)c(Nc3ccccc3S(=O)(=O)C(C)C)n2)c(OC(C)C)cc1C1CCNCC1 [CERITINIB]
inactive: [3] > 30 µM | [10] > 30 µM | [8] > 30 µM | [6] > 30 µM

CC(C)(C)c1nc(-c2cccc(NS(=O)(=O)c3c(F)cccc3F)c2F)c(-c2ccnc(N)n2)s1 [DABRAFENIB]
inactive: [7] > 30 µM | [9] > 30 µM | [1] > 30 µM | [2] > 30 µM | [4] > 30 µM | [5] > 30 µM | [6] > 30 µM

C[C@@H](Oc1cc(-n2cnc3ccc(CN4CCN(C)CC4)cc32)sc1C(N)=O)c1ccccc1C(F)(F)F [GSK-461364]
inactive: [7] > 30 µM | [9] > 30 µM | [1] > 30 µM | [3] > 30 µM | [8] > 30 µM | [6] > 30 µM

CCn1cc(-c2ccnc3[nH]c(-c4cccc(CN(C)C)c4)cc23)c(-c2ccc(NC(=O)N(C)C)cc2)n1 [GSK-1070916]
inactive: [9] > 30 µM | [4] > 30 µM | [5] > 30 µM | [6] > 30 µM

O=C(Nc1cc(C(F)(F)F)cc(C(F)(F)F)c1)c1cc(Cl)ccc1O [IMD-0354]
inactive: [9] > 30 µM | [2] > 30 µM | [10] > 30 µM | [8] > 30 µM

CNC(=O)c1cccc2cc(Oc3ccnc4cc(OCC5(N)CC5)c(OC)cc34)ccc12 [LUCITANIB]
inactive: [7] > 30 µM | [9] > 30 µM | [1] > 30 µM | [2] > 30 µM | [8] > 30 µM | [6] > 30 µM

FC(F)(F)c1ccc(/C=C/c2nc(COc3ccc(CCCCn4ccnn4)cc3)co2)cc1 [MUBRITINIB]
inactive: [2] > 30 µM | [4] > 30 µM | [10] > 30 µM | [8] > 30 µM

COc1ncc(-c2ccc3nccc(-c4ccnnc4)c3c2)cc1NS(=O)(=O)c1ccc(F)cc1F [OMIPALISIB]
inactive: [7] > 30 µM | [1] > 30 µM | [2] > 30 µM | [3] > 30 µM | [4] > 30 µM | [10] > 30 µM | [8] > 30 µM

Cc1[nH]c(/C=C2\C(=O)Nc3ccccc32)c(C)c1CCC(=O)O [ORANTINIB]
inactive: [7] > 30 µM | [9] > 30 µM | [1] > 30 µM | [3] > 30 µM | [5] > 30 µM | [6] > 30 µM

Cc1cnc(NC(=O)Nc2cc(Br)c(C)cc2OC[C@@H]2CNCCO2)cn1 [RABUSERTIB]
inactive: [7] > 30 µM | [9] > 30 µM | [1] > 30 µM | [2] > 30 µM | [3] > 30 µM | [4] > 30 µM | [8] > 30 µM | [5] > 30 µM | [6] > 30 µM

N#CC1(c2ccc(NC(=O)c3cccnc3NCc3ccncc3)cc2)CCCC1 [RIVOCERANIB]
inactive: [7] > 30 µM | [1] > 30 µM | [2] > 30 µM | [3] > 30 µM | [4] > 30 µM | [10] > 30 µM | [8] > 30 µM

CN1CCN(CCOc2cc(OC3CCOCC3)c3c(Nc4c(Cl)ccc5c4OCO5)ncnc3c2)CC1 [SARACATINIB]
inactive: [2] > 30 µM | [3] > 30 µM | [8] > 30 µM | [5] > 30 µM | [6] > 30 µM

CO[C@H]1C[C@@H]2CC[C@@H](C)[C@@](O)(O2)C(=O)C(=O)N2CCCC[C@H]2C(=O)O[C@H]([C@H](C)C[C@@H]2CC[C@@H](O)[C@H](OC)C2)CC(=O)[C@H](C)/C=C(\C)[C@@H](O)[C@@H](OC)C(=O)[C@H](C)C[C@H](C)/C=C/C=C/C=C/1C [SIROLIMUS]
inactive: [7] > 30 µM | [9] > 30 µM | [1] > 30 µM | [2] > 30 µM | [4] > 30 µM | [6] > 30 µM

COc1cc2c(Nc3ccc(Cl)c(Cl)c3F)ncnc2cc1OC[C@@H]1C[C@@H]2CN(C)C[C@@H]2C1 [TESEVATINIB]
inactive: [7] > 30 µM | [9] > 30 µM | [2] > 30 µM | [3] > 30 µM | [4] > 30 µM | [8] > 30 µM | [5] > 30 µM | [6] > 30 µM

O=C1NC(=O)[C@@H](c2cn3c4c(cccc24)CCC3)[C@@H]1c1c[nH]c2ccccc12 [TIVANTINIB]
inactive: [1] > 30 µM | [3] > 30 µM | [4] > 30 µM | [10] > 30 µM
